Reference: patent US20230107642A1 (Erasca, Inc., priority 2020, published 2023)

target: T1, Cys12 of the KRAS 4B G12C protein (Homo sapiens, UniProt P01116, G12C); test: In vitro covalent adduct formation (CAF) assay, LC-MS intact mass; format: binding; conditions: 10 μM compound, after 1 hour
T1 construct: This protein contained 188 amino acids in total, including an N-terminal 6-Histidine tag; made in house; host or cells: E. coli BL21
How it was run: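 Percent covalent modification from intact-mass LC-MS, by relative free versus adducted protein (adducts within 1 Da of expected mass). Reaction: 10 μM compound with 5 μM E. coli-expressed, GDP-exchanged KRAS 4B G12C in TBS pH 7.4, 4% DMSO, 1 h at 22° C.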

Point of comparison: `C=C(F)C(=O)N1CCN(c2nc(=O)n3c4c(c(-c5ccc(F)cc5)c(C(F)(F)F)cc24)SC[C@@H](OC)C3)CC1` [Example 1223, (S)-8-(4-(2-Fluoroacryloyl)piperazin-1-yl)-11-(4-fluorophenyl)-3-methoxy-10-(trifluoromethyl)-3,4-dihydro-2H,6H-[1,4]thiazepino[2,3,4-ij]quinazolin-6-one], “CAF (% after 1 hour)” value 57%. Against it:
- C=C(F)C(=O)N1CCN(c2nc(=O)n3c4c(c(-c5cc(Cl)c(F)cc5F)c(C(F)(F)F)cc24)SC[C@@H](OC)C3)CC1 [Example 1219, (3S)-11-(5-Chloro-2,4-difluorophenyl)-8-(4-(2-fluoroacryloyl)piperazin-1-yl)-3-methoxy-10-(trifluoromethyl)-3,4-dihydro-2H,6H-[1,4]thiazepino[2,3,4-ij]quinazolin-6-one] — higher, 64%
- C=C(F)C(=O)N1[C@H](C)CN(c2nc(=O)n3c4c(c(-c5ccc(F)cc5F)c(C(F)(F)F)cc24)SC[C@@H](OC)C3)C[C@@H]1C [Example 1220, (3S)-11-(2,4-Difluorophenyl)-8-((3S,5R)-4-(2-fluoroacryloyl)-3,5-dimethylpiperazin-1-yl)-3-methoxy-10-(trifluoromethyl)-3,4-dihydro-2H,6H-[1,4]thiazepino[2,3,4-ij]quinazolin-6-one] — higher, 67%
- C=C(F)C(=O)N1CCN(c2nc(=O)n3c4c(c(-c5ccc(F)cc5F)c(C(F)(F)F)cc24)SC[C@@H](OC)C3)CC1 [Example 1221, (3S)-11-(2,4-Difluorophenyl)-8-(4-(2-fluoroacryloyl)piperazin-1-yl)-3-methoxy-10-(trifluoromethyl)-3,4-dihydro-2H,6H-[1,4]thiazepino[2,3,4-ij]quinazolin-6-one] — higher, 61%
- C=C(F)C(=O)N1[C@H](C)CN(c2nc(=O)n3c4c(c(-c5ccc(F)cc5)c(C(F)(F)F)cc24)SC[C@@H](OC)C3)C[C@@H]1C [Example 1222, (S)-8-((3S,5R)-4-(2-Fluoroacryloyl)-3,5-dimethylpiperazin-1-yl)-11-(4-fluorophenyl)-3-methoxy-10-(trifluoromethyl)-3,4-dihydro-2H,6H-[1,4]thiazepino[2,3,4-ij]quinazolin-6-one] — higher, 59%
- C=CC(=O)N1[C@H](C)CN(c2nc(=O)n3c4c(c(-c5ccc(F)cc5)c(C(F)(F)F)cc24)SC[C@@H](NS(C)(=O)=O)C3)C[C@@H]1C [Example 1224, N—((S)-8-((3S,5R)-4-Acryloyl-3,5-dimethylpiperazin-1-yl)-11-(4-fluorophenyl)-6-oxo-10-(trifluoromethyl)-3,4-dihydro-2H,6H-[1,4]thiazepino[2,3,4-ij]quinazolin-3-yl)methanesulfonamide] — higher, 96%
- C=CC(=O)N1[C@H](C)CN(c2nc(=O)n3c4c(c(-c5ncc(F)cc5F)c(C(F)(F)F)cc24)SC[C@@H](OC)C3)C[C@@H]1C [Example 1225, (3S)-8-((3S,5R)-4-Acryloyl-3,5-dimethylpiperazin-1-yl)-11-(3,5-difluoropyridin-2-yl)-3-methoxy-10-(trifluoromethyl)-3,4-dihydro-2H,6H-[1,4]thiazepino[2,3,4-ij]quinazolin-6-one] — higher, 95%
- C=CC(=O)N1[C@H](C)CN(c2nc(=O)n3c4c(c(-c5ccc(F)cc5C#N)c(C(F)(F)F)cc24)SC[C@@H](OC)C3)C[C@@H]1C [Example 1226, 2-((3S)-8-((3S,5R)-4-Acryloyl-3,5-dimethylpiperazin-1-yl)-3-methoxy-6-oxo-10-(trifluoromethyl)-3,4-dihydro-2H,6H-[1,4]thiazepino[2,3,4-ij]quinazolin-11-yl)-5-fluorobenzonitrile] — higher, 81%
- C=CC(=O)N1[C@H](C)CN(c2nc(=O)n3c4c(c(-c5ccc(F)cc5F)c(C(F)(F)F)cc24)SCCC3)C[C@@H]1C [Example 1227, 8-((3S,5R)-4-acryloyl-3,5-dimethylpiperazin-1-yl)-11-(2,4-difluorophenyl)-10-(trifluoromethyl)-3,4-dihydro-2H,6H-[1,4]thiazepino[2,3,4-ij]quinazolin-6-one] — higher, 93%
- [2H]C([2H])=C([2H])C(=O)N1[C@H](C)CN(c2nc(=O)n3c4c(c(-c5ccc(F)cc5)c(C(F)(F)F)cc24)SC[C@@H](OC)C3)C[C@@H]1C [Example 1228, (S)-8-((3S,5R)-4-(acryloyl-d3)-3,5-dimethylpiperazin-1-yl)-11-(4-fluorophenyl)-3-methoxy-10-(trifluoromethyl)-3,4-dihydro-2H,6H-[1,4]thiazepino[2,3,4-ij]quinazolin-6-one] — higher, 96%
- [2H]C([2H])([2H])O[C@@H]1CSc2c(-c3ccc(F)cc3)c(C(F)(F)F)cc3c(N4C[C@@H](C)N(C(=O)C=C)[C@@H](C)C4)nc(=O)n(c23)C1 [Example 1229, (S)-8-((3S,5R)-4-acryloyl-3,5-dimethylpiperazin-1-yl)-11-(4-fluorophenyl)-3-(methoxy-d3)-10-(trifluoromethyl)-3,4-dihydro-2H,6H-[1,4]thiazepino[2,3,4-ij]quinazolin-6-one] — higher, 96%
- C=CC(=O)N1[C@H](C)CN(c2nc(=O)n3c4c(c(-c5cc(Cl)c(F)cc5F)c(C(F)(F)F)cc24)SC[C@@H](Oc2cc(C)on2)C3)C[C@@H]1C [Example 1230, (3S,11R)-8-((3S,5R)-4-acryloyl-3,5-dimethylpiperazin-1-yl)-11-(5-chloro-2,4-difluorophenyl)-3-((5-methylisoxazol-3-yl)oxy)-10-(trifluoromethyl)-3,4-dihydro-2H,6H-[1,4]thiazepino[2,3,4-ij]quinazolin-6-one] — higher, 94%
- C=CC(=O)N1[C@H](C)CN(c2nc(=O)n3c4c(c(-c5cc(Cl)c(F)cc5F)c(C(F)(F)F)cc24)SC[C@@H](Oc2cc(C)on2)C3)C[C@@H]1C [Example 1231, (3S,11S)-8-((3S,5R)-4-acryloyl-3,5-dimethylpiperazin-1-yl)-11-(5-chloro-2,4-difluorophenyl)-3-((5-methylisoxazol-3-yl)oxy)-10-(trifluoromethyl)-3,4-dihydro-2H,6H-[1,4]thiazepino[2,3,4-ij]quinazolin-6-one] — lower, 38%
- C=CC(=O)N1[C@H](C)CN(c2nc(=O)n3c4c(c(-c5ccc(F)cc5)c(C(F)(F)F)cc24)SC[C@@H](OCC(=O)N(C)C)C3)C[C@@H]1C [Example 1232, 2-(((S)-8-((3S,5R)-4-acryloyl-3,5-dimethylpiperazin-1-yl)-11-(4-fluorophenyl)-6-oxo-10-(trifluoromethyl)-3,4-dihydro-2H,6H-[1,4]thiazepino[2,3,4-ij]quinazolin-3-yl)oxy)-N,N-dimethylacetamide] — higher, 93%
- C=CC(=O)N1[C@H](C)CN(c2nc(=O)n3c4c(c(-c5ccc(F)cc5)c(C(F)(F)F)cc24)SC[C@@H](OCC(N)=O)C3)C[C@@H]1C [Example 1233, 2-(((S)-8-((3S,5R)-4-acryloyl-3,5-dimethylpiperazin-1-yl)-11-(4-fluorophenyl)-6-oxo-10-(trifluoromethyl)-3,4-dihydro-2H,6H-[1,4]thiazepino[2,3,4-ij]quinazolin-3-yl)oxy)acetamide] — higher, 95%
- C=CC(=O)N1[C@H](C)CN(c2nc(=O)n3c4c(c(-c5cc(Cl)c(F)cc5F)c(C(F)(F)F)cc24)SC[C@@H](Oc2ccncc2)C3)C[C@@H]1C [Example 1234, (3S)-8-((3S,5R)-4-acryloyl-3,5-dimethylpiperazin-1-yl)-11-(5-chloro-2,4-difluorophenyl)-3-(pyridin-4-yloxy)-10-(trifluoromethyl)-3,4-dihydro-2H,6H-[1,4]thiazepino[2,3,4-ij]quinazolin-6-one] — higher, 94%
- C=CC(=O)N1[C@H](C)CN(c2nc(=O)n3c4c(c(-c5ccc(F)cc5C(N)=O)c(C(F)(F)F)cc24)SC[C@@H](OC)C3)C[C@@H]1C [Example 1235, 2-((3S)-8-((3S,5R)-4-acryloyl-3,5-dimethylpiperazin-1-yl)-3-methoxy-6-oxo-10-(trifluoromethyl)-3,4-dihydro-2H,6H-[1,4]thiazepino[2,3,4-ij]quinazolin-11-yl)-5-fluorobenzamide] — higher, 69%
- C=CC(=O)N1[C@H](C)CN(c2nc(=O)n3c4c(c(-c5cc(Cl)c(F)cc5F)c(C(F)(F)F)cc24)SC[C@@H](OCCN(CC)CC)C3)C[C@@H]1C [Example 1236, (3S)-8-((3S,5R)-4-acryloyl-3,5-dimethylpiperazin-1-yl)-11-(5-chloro-2,4-difluorophenyl)-3-(2-(diethylamino)ethoxy)-10-(trifluoromethyl)-3,4-dihydro-2H,6H-[1,4]thiazepino[2,3,4-ij]quinazolin-6-one] — higher, 94%
- C=CC(=O)N1[C@H](C)CN(c2nc(=O)n3c4c(c(-c5cc(Cl)c(F)cc5F)c(C(F)(F)F)cc24)SCC2(CC2)C3)C[C@@H]1C [Example 1237, 8′-((3S,5R)-4-acryloyl-3,5-dimethylpiperazin-1-yl)-11′-(5-chloro-2,4-difluorophenyl)-10′-(trifluoromethyl)-2′H,4′H,6′H-spiro[cyclopropane-1,3′-[1,4]thiazepino[2,3,4-ij]quinazolin]-6′-one] — higher, 90%
- C=CC(=O)N1[C@H](C)CN(c2nc(=O)n3c4c(c(-c5cc(Cl)c(F)cc5F)c(C(F)(F)F)cc24)SCC2(CCC2)C3)C[C@@H]1C [Example 1238, 8′-((3S,5R)-4-acryloyl-3,5-dimethylpiperazin-1-yl)-11′-(5-chloro-2,4-difluorophenyl)-10′-(trifluoromethyl)-2′H,4′H,6′H-spiro[cyclobutane-1,3′-[1,4]thiazepino[2,3,4-ij]quinazolin]-6′-one] — higher, 95%
